Measured values published in patent US9617256B2 (priority 2007, dated 2017).
Converted amounts (≈) assume the structure as drawn.

Tests used:
[1] = test system: APAE006 (strain of P. aeruginosa in which all efflux pumps are inactivated); test: microbe, parasite or virus in culture; type: cell-based; conditions: Pseudomonas aeruginosa, read-out: MIC APAE006, P. aeruginosa, all efflux pumps inactivated
In short: (§1)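 Minimum inhibitory concentrations followed CLSI broth microdilution guidelines: cation-adjusted Mueller-Hinton broth, 2-fold serial drug dilutions, final inoculum 3×10^5–7×10^5 CFU/mL, ambient air at 35° C. for 18-24 hours. Quality-control strains and levofloxacin monitored performance.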

[2] = test system: AABA1060 (clinical isolate of Acinetobacter baumannii); test: MIC broth microdilution, AABA1060; type: cell-based; conditions: Acinetobacter baumannii, read-out: MIC AABA1060
In short: (§2)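 MICs come from broth microdilution in cation-adjusted Mueller-Hinton broth, final inoculum 3×10^5–7×10^5 CFU/mL, 18-24 hours at 35° C. Levofloxacin and QC strains served as assay controls.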

AECO001 (ATCC25922) = test: MIC broth microdilution, AECO001; type: cell-based, E. coli; conditions: Escherichia coli, ATCC25922, read-out: MIC AECO001
In short: as §2

AECO001 HSA AGP = test: MIC broth microdilution, AECO001 HSA AGP; type: cell-based, E. coli; conditions: Escherichia coli
In short: as §2

[3] = test system: APAE006 in the presence of 8 micrograms per milliliter of polymyxin B nonapeptide; type: cell-based, P. aeruginosa; conditions: in the presence of 8 micrograms per milliliter of polymyxin B nonapeptide
In short: as §1

[4] = test system: ASAU001 (laboratory strain of S. aureus, ATCC29213); test: MIC broth microdilution, ASAU001; type: cell-based; conditions: Staphylococcus aureus, ATCC29213, read-out: MIC ASAU001
In short: as §2

[5] = test system: AECO063 (ATCC25922 bearing an acrAB mutation); test: microbe, parasite or virus in culture; type: cell-based, E. coli; conditions: Escherichia coli, ATCC25922, read-out: MIC AECO063
In short: as §2

APAE001 (ATCC27853) = test: MIC broth microdilution, APAE001; type: cell-based, P. aeruginosa; conditions: Pseudomonas aeruginosa, ATCC27853, read-out: MIC APAE001, APAE001 is ATCC27853
In short: as §2

| Compound | MIC [1] [µg/mL] | MIC [2] [µg/mL] | MIC (AECO001 (ATCC25922)) [µg/mL] | MIC (AECO001 HSA AGP) [µg/mL] | MIC APAE006 + PMBN [3] | MIC [4] [µg/mL] | MIC [5] [µg/mL] | MIC (APAE001 (ATCC27853)) [µg/mL] |
| --- | --- | --- | --- | --- | --- | --- | --- | --- |
| C[C@@H](O)[C@H](NC(=O)c1ccc(C#C/C=C/c2ccc(CN3CCOCC3)cc2)cc1)C(=O)NO [Example 96-1, N-((1S,2R)-2-Hydroxy-1-hydroxycarbamoyl-propyl)-4-[(E)-4-(4-morpholin-4-ylmethyl-phenyl)-but-3-en-1-ynyl]-benzamide] | < 2 | 2 to 16 (≈ 4.31 to 34.5 µM) | < 2 | < 2 | A (MIC's of 2.0 μg/mL or less = A) | > 64 | < 2 | 2 to 16 (≈ 4.31 to 34.5 µM) |
| NC[C@H](NC(=O)c1ccc(C#C/C=C/c2ccc(CO)cc2)cc1)C(=O)NO [Example 101-2] | < 2 | 16 to 64 (≈ 42.2 to 169 µM) | < 2 | 16 to 64 (≈ 42.2 to 169 µM) | A (MIC's of 2.0 μg/mL or less = A) | 16 to 64 (≈ 42.2 to 169 µM) | < 2 | 2 to 16 (≈ 5.27 to 42.2 µM) |
| C[C@@H](O)[C@H](NC(=O)c1ccc(C#CC#Cc2cncn2C)cc1)C(=O)NO [Example 88-9] | < 2 | 16 to 64 (≈ 43.7 to 175 µM) | < 2 | 2 to 16 (≈ 5.46 to 43.7 µM) | A (MIC's of 2.0 μg/mL or less = A) | 16 to 64 (≈ 43.7 to 175 µM) | < 2 | 2 to 16 (≈ 5.46 to 43.7 µM) |
| CC(C)(O)[C@H](NC(=O)c1ccc(/C=C/C#Cc2ccc(CO)cc2)cc1)C(=O)NO [Example 112-5] | < 2 | < 2 | < 2 | 2 to 16 (≈ 4.9 to 39.2 µM) | A (MIC's of 2.0 μg/mL or less = A) | 16 to 64 (≈ 39.2 to 157 µM) | < 2 | < 2 |
| C[C@@H](N)[C@H](NC(=O)c1ccc(C#Cc2ccc(CNS(C)(=O)=O)cc2)cc1)C(=O)NO [Example 131-2] | < 2 | 16 to 64 (≈ 36 to 144 µM) | 2 to 16 (≈ 4.5 to 36 µM) | 16 to 64 (≈ 36 to 144 µM) | A (MIC's of 2.0 μg/mL or less = A) | > 64 | < 2 | < 2 |
| C[C@@H](N)[C@H](NC(=O)c1ccc(C#Cc2ccc(CNC(=N)N)cc2)cc1)C(=O)NO [Example 131-3, N-((1S,2R)-2-Amino-1-hydroxycarbamoyl-propyl)-4-(4-guanidinomethyl-phenylethynyl)-benzamide] | < 2 | 16 to 64 (≈ 39.2 to 157 µM) | 16 to 64 (≈ 39.2 to 157 µM) | 16 to 64 (≈ 39.2 to 157 µM) | A (MIC's of 2.0 μg/mL or less = A) | 16 to 64 (≈ 39.2 to 157 µM) | 16 to 64 (≈ 39.2 to 157 µM) | 2 to 16 (≈ 4.9 to 39.2 µM) |
| C[C@@H](O)[C@H](NC(=O)c1ccc(N2CCC(c3ccc(CN4CCOCC4)cc3)CC2)cc1)C(=O)NO [Example 42-7, N-((1S,2R)-2-Hydroxy-1-hydroxycarbamoyl-propyl)-4-[4-(4-morpholin-4-ylmethyl-phenyl)-piperidin-1-yl]-benzamide] | < 2 | 16 to 64 (≈ 32.2 to 129 µM) | 16 to 64 (≈ 32.2 to 129 µM) | 16 to 64 (≈ 32.2 to 129 µM) | A (MIC's of 2.0 μg/mL or less = A) | > 64 | 16 to 64 (≈ 32.2 to 129 µM) | 16 to 64 (≈ 32.2 to 129 µM) |
| C[C@@H](N)[C@H](NC(=O)c1ccc(C#C/C=C/c2ccc(CN3CCOCC3)cc2)cc1)C(=O)NO [Example 96-4] | < 2 | 2 to 16 (≈ 4.32 to 34.6 µM) | < 2 | 2 to 16 (≈ 4.32 to 34.6 µM) | A (MIC's of 2.0 μg/mL or less = A) | > 64 | < 2 | 2 to 16 (≈ 4.32 to 34.6 µM) |
| C[C@@H](N)[C@H](NC(=O)c1ccc(C#CC#CC2CCCC2)cc1)C(=O)NO [Example 91-3] | < 2 | 2 to 16 (≈ 5.66 to 45.3 µM) | < 2 | 2 to 16 (≈ 5.66 to 45.3 µM) | A (MIC's of 2.0 μg/mL or less = A) | 2 to 16 (≈ 5.66 to 45.3 µM) | < 2 | < 2 |
| NC[C@H](NC(=O)c1ccc(/C=C/C#Cc2ccc(CO)cc2)cc1)C(=O)NO [Example 112-2] | < 2 | > 64 | 2 to 16 (≈ 5.27 to 42.2 µM) | 16 to 64 (≈ 42.2 to 169 µM) | A (MIC's of 2.0 μg/mL or less = A) | > 64 | < 2 | 2 to 16 (≈ 5.27 to 42.2 µM) |
| C[C@@H](O)[C@H](NC(=O)c1ccc(C2CCN(c3ccc(CN4CCOCC4)cc3)CC2)cc1)C(=O)NO [Example 41-5, N-((1S,2R)-2-Hydroxy-1-hydroxycarbamoyl-propyl)-4-[1-(4-morpholin-4-ylmethyl-phenyl)-piperidin-4-yl]-benzamide] | < 2 | > 64 | > 64 | > 64 | A (MIC's of 2.0 μg/mL or less = A) | > 64 | 16 to 64 (≈ 32.2 to 129 µM) | 16 to 64 (≈ 32.2 to 129 µM) |
| NC[C@H](NC(=O)c1ccc(C#CC#Cc2ccc(CO)cc2)cc1)C(=O)NO [Example 82-2] | < 2 | 16 to 64 (≈ 42.4 to 170 µM) | < 2 | 16 to 64 (≈ 42.4 to 170 µM) | A (MIC's of 2.0 μg/mL or less = A) | 16 to 64 (≈ 42.4 to 170 µM) | < 2 | < 2 |
| C[C@@H](O)[C@H](NC(=O)c1ccc(C=C(F)C#Cc2ccc(CN3CCOCC3)cc2)cc1)C(=O)NO [Example 109-1, 4-(2-fluoro-4-(4-(morpholinomethyl)phenyl)but-1-en-3-ynyl)-N-((2S,3R)-3-hydroxy-1-(hydroxyamino)-1-oxobutan-2-yl)benzamide] | < 2 | 2 to 16 (≈ 4.15 to 33.2 µM) | < 2 | 2 to 16 (≈ 4.15 to 33.2 µM) | A (MIC's of 2.0 μg/mL or less = A) | > 64 | < 2 | 2 to 16 (≈ 4.15 to 33.2 µM) |
| C[C@@H](N)[C@H](NC(=O)c1ccc(C#Cc2ccc(CCO)cc2)cc1)C(=O)NO [Example 120-3] | < 2 | 2 to 16 (≈ 5.24 to 41.9 µM) | < 2 | 2 to 16 (≈ 5.24 to 41.9 µM) | A (MIC's of 2.0 μg/mL or less = A) | > 64 | < 2 | < 2 |
| C[C@@H](N)[C@H](NC(=O)c1ccc(C#Cc2ccc(CN)cc2)cc1)C(=O)NO [Example 131-1, N-((1S,2R)-2-Amino-1-hydroxycarbamoyl-propyl)-4-(4-aminomethyl-phenylethynyl)-benzamide] | < 2 | > 64 | 16 to 64 (≈ 43.7 to 175 µM) | > 64 | A (MIC's of 2.0 μg/mL or less = A) | > 64 | 16 to 64 (≈ 43.7 to 175 µM) | 2 to 16 (≈ 5.46 to 43.7 µM) |
| NC[C@H](NC(=O)c1ccc(C#C/C=C/c2ccc(CN3CCOCC3)cc2)cc1)C(=O)NO [Example 98-1, N—((S)-2-amino-1-hydroxycarbamoyl-ethyl)-4-[(E)-4-(4-morpholin-4-ylmethyl-phenyl)-but-3-en-1-ynyl]-benzamide] | < 2 | 16 to 64 (≈ 35.7 to 143 µM) | < 2 | < 2 | A (MIC's of 2.0 μg/mL or less = A) | 16 to 64 (≈ 35.7 to 143 µM) | < 2 | < 2 |
| C[C@H](O)[C@H](NC(=O)c1ccc(C#C/C=C/c2ccc(CO)cc2)cc1)C(=O)NO [Example 101-4] | < 2 | 16 to 64 (≈ 40.6 to 162 µM) | < 2 | 2 to 16 (≈ 5.07 to 40.6 µM) | A (MIC's of 2.0 μg/mL or less = A) | 16 to 64 (≈ 40.6 to 162 µM) | < 2 | 2 to 16 (≈ 5.07 to 40.6 µM) |
| C[C@@H](N)[C@H](NC(=O)c1ccc(C#CC#Cc2ccc(CO)cc2)cc1)C(=O)NO [Example 82-3] | < 2 | 2 to 16 (≈ 5.11 to 40.9 µM) | < 2 | 16 to 64 (≈ 40.9 to 164 µM) | A (MIC's of 2.0 μg/mL or less = A) | 16 to 64 (≈ 40.9 to 164 µM) | < 2 | < 2 |
